Measured values published in patent publication US20130102618A1, “3-AMINO-5,6-DIHYDRO-1H-PYRAZIN-2-ONE DERIVATIVES USEFUL FOR THE TREATMENT OF ALZHEIMER'S DISEASE AND OTHER FORMS OF DEMENTIA” (JANSSEN PHARMACEUTICA NV, priority 2010, published 2013).

Columns and labels:
[1] = tested on: Aβtotal produced and secreted into the medium of human neuroblastoma SKNBE2 cells; assay: Cellular αlisa assay in SKNBE2 cells, Aβtotal; assay type: cell-based; details: SKNBE2 expressing wild type hAPP695, incubated for 18 hours, read-out: Cellular αlisa assay in SKNBE2 cells Aβtotal pIC50 (converted)
Protocol: (§1) In two αlisa assays the levels of Aβtotal and Aβ42 produced and secreted into the medium of human neuroblastoma SKNBE2 cells are quantified. The assay is based on the human neuroblastoma SKNBE2 expressing the wild type Amyloid Precursor Protein (hAPP695). The compounds are diluted and added to these cells, incubated for 18 hours and then measurements of Aβ42 and Aβtotal are taken. Aβtotal and Aβ42 are measured by sandwich αlisa. αlisa is a sandwich assay using biotinylated antibody AbN/25 attached to streptavidin coated beads and antibody Ab4G8 or cAb42/26 conjugated acceptor beads for the detection of Aβtotal and Aβ42 respectively. In the presence of Aβtotal or Aβ42, the beads come into close proximity. The excitation of the Donor beads provokes the release of singlet oxygen molecules that triggers a cascade of energy transfer in the Acceptor beads, resulting in light emission. Light emission is measured after 1 hour incubation (excitation at […] and emission at 615 nm).
(§2) A best-fit curve is fitted by a minimum sum of squares method to the plot of % Controlmin versus compound concentration. From this an IC50 value (inhibitory concentration causing 50% inhibition of activity) can be obtained.

[2] = tested on: Aβ42 produced and secreted into the medium of human neuroblastoma SKNBE2 cells; assay: Cellular αlisa assay in SKNBE2 cells, Aβ42; assay type: cell-based; details: SKNBE2 expressing wild type hAPP695, incubated for 18 hours, read-out: Cellular αlisa assay in SKNBE2 cells Aβ42 pIC50 (converted)
Protocol: as §1, §2

[3] = biological target: T1, recombinant BACE1 protein (Homo sapiens, UniProt P56817); assay: Biochemical FRET based assay; details: recombinant BACE1 1 μg/ml, APP-derived Swedish-mutation peptide substrate, 120 minutes, room temperature, pH 5.0; read-out: Biochemical FRET based assay pIC50 (converted)
T1 construct: recombinant BACE1 protein in a final concentration of 1 μg/ml
T1 sequence (P56817 46-501): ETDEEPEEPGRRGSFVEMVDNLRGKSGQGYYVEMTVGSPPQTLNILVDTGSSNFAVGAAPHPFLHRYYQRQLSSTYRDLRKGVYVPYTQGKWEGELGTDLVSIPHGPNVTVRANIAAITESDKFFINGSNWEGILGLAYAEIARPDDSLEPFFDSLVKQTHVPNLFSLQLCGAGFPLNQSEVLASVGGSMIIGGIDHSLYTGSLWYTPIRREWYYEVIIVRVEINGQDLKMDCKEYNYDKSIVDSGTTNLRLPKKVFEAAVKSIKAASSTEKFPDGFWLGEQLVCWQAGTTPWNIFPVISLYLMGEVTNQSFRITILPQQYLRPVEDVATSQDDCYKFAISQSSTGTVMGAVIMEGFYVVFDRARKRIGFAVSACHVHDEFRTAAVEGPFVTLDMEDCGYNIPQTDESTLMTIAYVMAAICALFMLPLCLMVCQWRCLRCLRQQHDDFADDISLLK
Text: This assay is a Fluorescence Resonance Energy Transfer Assay (FRET) based assay. The substrate for this assay is an APP derived 13 amino acids peptide that contains the ‘Swedish’ Lys-Met/Asn-Leu mutation of the amyloid precursor protein (APP) β-secretase cleavage site. This substrate also contains two fluorophores: (7-methoxy-coumarin-4-yl)acetic acid (Mca) is a fluorescent donor with excitation wavelength at 320 nm and emission at 405 nm and 2,4-Dinitrophenyl (Dnp) is a proprietary quencher acceptor. […] Upon cleavage by BACE1, the fluorophore Mca is separated from the quenching group Dnp, restoring the full fluorescence yield of the donor. The increase in fluorescence is linearly related to the rate of proteolysis (Koike H et al. J Biochem. 1999, 126, 235-42).
Briefly in a 384-well format recombinant BACE1 protein in a final concentration of 1 μg/ml is incubated for 120 minutes at room temperature with 10 μm substrate in incubation buffer (40 mM Citrate buffer pH 5.0, 0.04% PEG, 4% DMSO) in the absence or presence of compound. Next the amount of proteolysis is directly measured by fluorescence measurement at T=0 and T=120 (excitation at 320 nm and emission at 405 nm). Results are expressed in RFU, as difference between T120 and T0.
A best-fit curve is fitted by a minimum sum of squares method to the plot of % Controlmin versus compound concentration. From this an […] value (inhibitory concentration causing 50% inhibition of activity) can be obtained.

SMILES | IC50 [1] [µM] | IC50 [2] [µM] | melting point [°C] | IC50 [3] [µM]
CN1CC(C)(c2cccc(NC(=O)c3ccc(Cl)cn3)c2)N=C(N)C1=O (stereo not drawn) [compound 3] | 0.107 | 0.115 |  | 0.457
CN1CC(C)(c2cc(-c3ccccc3)c(F)cc2F)N=C(N)C1=O (stereo not drawn) [compound 6] | > 10 | > 10 | 141.5 | > 30.2
COc1cncc(-c2cc(C3(C)CN(C)C(=O)C(N)=N3)c(F)cc2F)c1 (stereo not drawn) [compound 7] | 4.07 | 4.47 | 180.5 | 7.59
CN1CC(C)(c2cccc(-c3cncnc3)c2)N=C(N)C1=O (stereo not drawn) [compound 16] | > 10 | > 10 | 234.6 | > 30.2

Next, values leading:

IC50 [1] [µM] | IC50 [2] [µM] | melting point [°C] | IC50 [3] [µM] | SMILES
5.75 | 7.08 | 218.6 | 27.5 | CN1CC(C)(c2cccc(-c3cccc(C#N)c3)c2)N=C(N)C1=O (stereo not drawn) [compound 1]
5.75 | 7.94 | 230.4 | 15.5 | COc1cncc(-c2cccc(C3(C)CN(C)C(=O)C(N)=N3)c2)c1 (stereo not drawn) [compound 2]
> 10 | > 10 | 145.2 | > 30.2 | CN1CC(C)(c2cc(-c3cncnc3)c(F)cc2F)N=C(N)C1=O (stereo not drawn) [compound 10]
